Consider 7 compounds from DBAASP.

For orientation: MIC means the lowest concentration that inhibits growth of the organism. A high value points to a need for much substance.

In brackets after ≈: the same amount, converted by molar mass. Several values for one entry are separate records, joined by “and”; a condition that tells them apart may be missing. Equal values may be shown once.

Among the test systems are Klebsiella pneumoniae; Citrobacter sp.; Streptococcus pneumoniae; Enterobacter cloacae; Staphylococcus aureus; Cryptococcus neoformans; Pseudomonas aeruginosa; Escherichia coli B; Bacillus subtilis 168; Staphylococcus aureus 1; Bacillus subtilis; Escherichia coli C600.
What all share (assay): ≥ marks a high value that may be exact or a test limit, other limits are often not marked, values filed in µg/mL are converted to µM
Test [1] has as its system Pseudomonas aeruginosa ATCC 15442.
Test [2] relates to Acinetobacter baumannii ATCC 15308.
The subject of test [3] is Escherichia coli ATCC 25922.
In test [4] the test system is Staphylococcus aureus ATCC 25923.
The test system of test [5] is Staphylococcus aureus ATCC 700698.
Test [6] deals with Staphylococcus aureus ATCC BAA-44.
For test [7], the system named is Pseudomonas aeruginosa ATCC BAA-427.
Test [8] relates to Candida parapsilosis ATCC 22019.
The test system of test [9] is Escherichia coli ATCC 9637.
Test [10] deals with Bacillus subtilis ATCC 6633.
The subject of test [11] is Staphylococcus aureus ATCC 29213.
Test [12] concerns Staphylococcus aureus ATCC 33592.
In test [13] the test system is Klebsiella pneumoniae ATCC 27736.
For test [14], the system named is Candida albicans ATCC 10231.
Test [15] relates to Staphylococcus aureus ATCC 700699.
Test [16] concerns Escherichia coli KpC+001812446.
Test [17] concerns Klebsiella pneumoniae ATCC 13883.
Test [18] concerns Klebsiella pneumoniae KpC+001825971.
Test [19] has as its system Staphylococcus epidermidis.
The test system of test [20] is Pseudomonas aeruginosa ATCC 27853.
Test [21] concerns Micrococcus luteus CCM 144.
The test system of test [22] is Staphylococcus aureus ATCC 43300.
Test [23] relates to Candida albicans F7-39/IDE99.
Test [24] has as its system Pectobacterium carotovorum.
Test [25] concerns Pseudomonas aeruginosa PAO1.
The test system of test [26] is Staphylococcus aureus 209P.

Turning to `CC[C@H](C)[C@H](NC(=O)[C@H](CCSC)NC(=O)[C@H](C)NC(=O)[C@@H]1CCCN1C(=O)[C@@H](NC(=O)[C@@H]1CCCN1C(=O)[C@H](CCCCN)NC(=O)[C@@H](NC(=O)[C@H](CC(C)C)NC(=O)CNC(=O)CNC(=O)[C@H](CC(C)C)NC(=O)[C@@H](N)Cc1ccccc1)[C@@H](C)CC)C(C)C)C(=O)N[C@H]1CSSC[C@@H](C(=O)O)NC(=O)[C@H](CCCCN)NC(=O)[C@H](CCCCN)NC(=O)[C@H](CCCN=C(N)N)NC(=O)[C@H](C(C)C)NC(=O)[C@H](C)NC1=O` [FLGGLIKPVPAMICAVRKKC], the MIC in [1] was at least 117 µM; against Klebsiella pneumoniae it was above 117 µM; in the test on Citrobacter sp., at least 117 µM; against Streptococcus pneumoniae, at least 117 µM; in the test on Enterobacter cloacae, at least 117 µM; in test [2] it was at least 117 µM. Also, the MIC (in the test on Staphylococcus aureus; in test [3]; in [4]) was above 117 µM in each case.

`CC[C@H](C)[C@H](NC(=O)[C@H](CCCN=C(N)N)NC(=O)CNC(=O)[C@H](CC(C)C)NC(=O)[C@H](Cc1ccccc1)NC(=O)[C@H](CCCCN)NC(=O)[C@H](CO)NC(=O)[C@H](Cc1ccccc1)NC(=O)[C@H](Cc1c[nH]c2ccccc12)NC(=O)[C@H](CCCCN)NC(=O)[C@@H](NC(=O)[C@@H](N)Cc1ccccc1)C(C)C)C(=O)N[C@@H](CC(C)C)C(N)=O` [FVKWFSKFLGRIL]: the minimum inhibitory concentration (MIC) in test [5] came to 2 µM (≈ 3.28 µg/mL); in test [6] it was 2 µM (≈ 3.28 µg/mL); in test [7] it was 6.8 µM (≈ 11.2 µg/mL); in [8] it was 6 µM (≈ 9.84 µg/mL); in test [9] it was 6.25 µM (≈ 10.3 µg/mL); in [10], 7.6 µM (≈ 12.5 µg/mL). Moreover, the MIC in test [11] was 2 µM (≈ 3.28 µg/mL); against Cryptococcus neoformans, 3 µM (≈ 4.92 µg/mL); in test [12], 2 µM (≈ 3.28 µg/mL); in test [13] it was 7.6 µM (≈ 12.5 µg/mL); in [14] it was 6 µM (≈ 9.84 µg/mL); in [3], 3.8 µM (≈ 6.23 µg/mL). The MIC in test [4] was 3.8 µM and 7.6 µM; in test [15], 2 µM (≈ 3.28 µg/mL).

For the compound `CC[C@H](C)[C@H](NC(=O)[C@H](CCCCN)NC(=O)[C@H](CCCCN)NC(=O)[C@H](Cc1ccccc1)NC(=O)[C@H](CC(C)C)NC(=O)[C@H](CCCCN)NC(=O)[C@H](Cc1c[nH]c2ccccc12)NC(=O)[C@H](CCCCN)NC(=O)[C@H](Cc1cnc[nH]1)NC(=O)CNC(=O)CN)C(=O)NCC(=O)N[C@@H](C)C(=O)N[C@H](C(=O)N[C@@H](CC(C)C)C(=O)N[C@@H](CCCCN)C(=O)N[C@H](C(=O)N[C@@H](CC(C)C)C(=O)O)C(C)C)C(C)C` [GGHKWKLFKKIGAVLKVL], the MIC is 8 µM (≈ 16.2 µg/mL) in [16], at least 32 µM in test [17], 8 µM (≈ 16.2 µg/mL) in test [18] and 4 µM (≈ 8.09 µg/mL) in [3].

As for `CC[C@H](C)[C@H](NC(=O)CN)C(=O)N[C@@H](CC(C)C)C(=O)N[C@@H](CO)C(=O)N[C@@H](CO)C(=O)N[C@@H](Cc1c[nH]c2ccccc12)C(=O)N[C@@H](CC(C)C)C(=O)N[C@@H](CCCCN)C(=O)N[C@@H](CCCCN)C(=O)N[C@@H](CC(C)C)C(=O)N[C@@H](CCCCN)C(=O)N[C@@H](CCCCN)C(=O)N[C@H](C(=O)N[C@H](C(=O)N[C@@H](C)C(=O)N[C@@H](CCCCN)C(N)=O)[C@@H](C)CC)[C@@H](C)CC` [GILSSWLKKLKKIIAK], the MIC in test [19] turned out to be 2 µM (≈ 3.65 µg/mL); in the test with Pseudomonas aeruginosa, 5.9 µM (≈ 10.8 µg/mL); in test [20], 4 µM (≈ 7.3 µg/mL); against Escherichia coli B it was 11 µM (≈ 20.1 µg/mL); with Bacillus subtilis 168, 7 µM (≈ 12.8 µg/mL); in test [21] it was 3 µM (≈ 5.48 µg/mL). Further, the MIC in the test with Staphylococcus aureus is 16 µM (≈ 29.2 µg/mL); in test [22], 16 µM (≈ 29.2 µg/mL); in test [23] it was 17 µM (≈ 31 µg/mL); in the test on Staphylococcus aureus 1 it was 6.6 µM (≈ 12 µg/mL).

`CC[C@H](C)[C@H](NC(=O)CN)C(=O)N[C@@H](CCSC)C(=O)N[C@@H](CO)C(=O)N[C@@H](CO)C(=O)N[C@@H](CC(C)C)C(=O)N[C@@H](CCSC)C(=O)N[C@@H](CCCCN)C(=O)N[C@@H](CCCCN)C(=O)N[C@@H](CC(C)C)C(=O)N[C@@H](C)C(=O)N[C@@H](C)C(=O)N[C@@H](Cc1cnc[nH]1)C(=O)N[C@H](C(=O)N[C@@H](CCCCN)C(=O)N[C@@H](CCCCN)C(N)=O)[C@@H](C)CC` [GIMSSLMKKLAAHIKK]: the MIC in test [19] worked out at 11 µM (≈ 19.3 µg/mL); in the test on Pseudomonas aeruginosa, 46 µM (≈ 80.7 µg/mL); in test [20], 23 µM (≈ 40.4 µg/mL); in the test with Escherichia coli B it was 20 µM (≈ 35.1 µg/mL); in the test with Bacillus subtilis 168, 7 µM (≈ 12.3 µg/mL); in test [21], 3 µM (≈ 5.27 µg/mL). In addition, the MIC was 90 µM (≈ 158 µg/mL) against Staphylococcus aureus, 85 µM (≈ 149 µg/mL) in test [22], 5 µM (≈ 8.78 µg/mL) in [23] and at least 77 µM against Staphylococcus aureus 1.

Turning to `CC[C@H](C)[C@H](NC(=O)[C@H](CO)NC(=O)[C@H](CCCN=C(N)N)NC(=O)CNC(=O)[C@H](CCC(=O)O)NC(=O)[C@H](CC(C)C)NC(=O)[C@H](CCC(=O)O)NC(=O)[C@H](CC(C)C)NC(=O)[C@H](CO)NC(=O)[C@H](CC(=O)O)NC(=O)[C@H](Cc1ccc(O)cc1)NC(=O)[C@H](CCCN=C(N)N)NC(=O)[C@H](Cc1ccc(O)cc1)NC(=O)CNC(=O)[C@H](Cc1ccccc1)NC(=O)[C@@H](N)CCCCN)C(=O)N[C@@H](CO)C(=O)N[C@@H](CCCN=C(N)N)C(=O)N[C@H](C(=O)N[C@@H](CC(=O)O)C(=O)N[C@@H](CCC(=O)O)C(=O)N[C@@H](CC(C)C)C(=O)N[C@H](C(=O)N[C@@H](CCC(N)=O)C(=O)N[C@@H](CCC(N)=O)C(=O)N[C@@H](CCCN=C(N)N)C(=O)O)[C@@H](C)CC)[C@@H](C)CC` [KFGYRYDSLELEGRSISRIDELIQQR], the figures for the MIC (with Bacillus subtilis; in [24]) were 2.45 µM (≈ 7.77 µg/mL) and 0.632 µM (≈ 2.01 µg/mL), respectively.

Turning to `CC(C)[C@@H]1NC(=O)CNC(=O)[C@H](CCCN=C(N)N)NC(=O)[C@H](C(C)C)NC(=O)[C@H](CCCN=C(N)N)NC(=O)[C@H](C)NC(=O)[C@H](CCCN=C(N)N)NC(=O)[C@H](C(C)C)NC(=O)[C@@H](NC(=O)[C@H](Cc2c[nH]c3ccccc23)NC(=O)[C@@H](N)CCCN=C(N)N)CSSC[C@@H](C(=O)N[C@@H](Cc2c[nH]c3ccccc23)C(=O)O)NC(=O)[C@H](CCCN=C(N)N)NC(=O)[C@H](CCCN=C(N)N)NC(=O)[C@H](Cc2ccc(O)cc2)NC(=O)[C@H](CCCN=C(N)N)NC1=O` [RWCVRARVRGVRYRRCW], the MIC against Escherichia coli C600 was determined as 1.56 µM (≈ 3.55 µg/mL); in test [25], 12.5 µM (≈ 28.5 µg/mL); in test [26], 1.56 µM (≈ 3.55 µg/mL).
